{
  "source": "patent US11591342B2",
  "about": "“Heterocyclic compound, application thereof and pharmaceutical composition comprising same” (SUZHOU SINOVENT PHARMACEUTICALS CO., LTD., priority 2018, dated 2023)",
  "note": "pIC50: −log10 of the molar value.",
  "data": [
    {"molecular_target": "CYP3A4 (Homo sapiens (Human), UniProt P08684)", "sequence (P08684 whole entry)": "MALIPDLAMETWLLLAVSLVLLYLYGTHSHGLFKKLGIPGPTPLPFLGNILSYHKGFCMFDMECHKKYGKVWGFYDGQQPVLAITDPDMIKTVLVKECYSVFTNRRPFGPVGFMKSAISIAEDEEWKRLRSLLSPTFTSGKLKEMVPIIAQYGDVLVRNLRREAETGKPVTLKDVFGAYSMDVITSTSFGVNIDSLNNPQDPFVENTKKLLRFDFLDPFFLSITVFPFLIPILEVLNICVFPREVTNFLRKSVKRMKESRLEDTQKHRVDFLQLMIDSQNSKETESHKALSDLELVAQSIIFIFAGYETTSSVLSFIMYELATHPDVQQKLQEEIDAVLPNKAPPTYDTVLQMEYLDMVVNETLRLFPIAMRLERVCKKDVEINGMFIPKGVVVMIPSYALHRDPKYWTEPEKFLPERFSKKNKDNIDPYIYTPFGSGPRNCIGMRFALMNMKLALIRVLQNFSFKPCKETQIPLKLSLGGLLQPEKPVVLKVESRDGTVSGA", "assay": "Time-dependent inhibition of CYP3A4 (TDI assay, human liver microsomes)", "assay_type": "in vitro ADME", "details": "10 μM, human liver microsomes, Midazolam substrate, 30 min with NADPH vs 0 min", "method": "(§1) Effect Example 3. Time-Dependent Inhibition of CYP3A4\n(§2) 1. Preheating potassium phosphate buffer (K-buffer), pH 7.4: 100 mM potassium phosphate buffer (K-buffer) was prepared by mixing 9.5 mL of solution A with 40.5 mL of solution B, diluting to 500 mL with ultrapure water, and then adjusting to pH 7.4 with KOH or H3PO4, wherein the solution A (1M potassium dihydrogenphosphate) was prepared by dissolving 136.5 g of potassium dihydrogenphosphate in […] of ultrapure water.\n(§3) 2. Preparation of human liver microsome suspension (1.3 mg/mL, 1.3×, stock: 20 mg/mL): 100 μL of human liver microsome suspension (20 mg/mL) was added into […] of K-buffer.\n(§4) 3. Preparation of NADPH solution (4.167 mg/mL, 5 mM): 8.3 mg of NADPH was added into 2 mL of buffer.\n(§5) 4. Preparation of substrate solution (1.5× final): 1.5 μL of 10 mM Midazolam was added to 998.5 μL of K-buffer to yield the substrate mixture.\n(§6) 5. Preparation of 100× test compound, reference and blank control solutions: 3 μL of 10 mM stock solution of test compound was added to 27 μL of ACN; 3 μL of positive control stock solution was added to 27 μL of ACN; and 3 μL of DMSO was added to 27 μL of ACN to serve as blank control.\n(§7) 6. Primary preheating system: An NADPH-free system for 0 min incubation: 78 μL of 1.3× human liver microsome solution (step 2) was mixed with 1 μL of the 100× stock solutions of positive control, test compound, or blank control (step 5); A system containing NADPH for 30 min incubation: 78 μL of 1.3× human liver microsome solution (step 2) was mixed with 1 μL of the 100× stock solutions of positive control, test compound, or blank control (step 5).\n(§8) 7. Secondary preheating system: 150 μL of the substrate solution prepared in step 4 was added into a deep well plate together with the NADPH solution from step 3\n(§9) 8. The samples were preheated for 10 min in a 37° C. water bath.\n(§10) 9. Reaction procedure: (1) reaction for 0 min: 21 μL of K-buffer was added to the primary preheating system and mixed well without incubation; 20 μL of the mixture was immediately transferred into the plate of the secondary preheating system; after mixing, the secondary system was incubated in a 37° C. water bath for 15 min, and 60 μL of the reaction mixture was added into 120 μL of acetonitrile containing internal standard to terminate the reaction; and (2) reaction for 30 min: 21 μL of NADPH was added into the primary preheating system for a 30-min incubation after mixing; 20 μL of the mixture was added into the secondary preheating system prior to mixing; the mixture was incubated in a 37° C. water bath for 15 min, and 60 μL of the reaction mixture was added into 120 μL of acetonitrile containing internal standard to terminate the reaction.\n(§11) 10. After termination, the samples were shaken on a shaker at 600 rpm for 10 min and centrifuged at 5594 g for 15 min prior to LC-MS/MS analysis.", "units": {"CYP3A4 TDI % @ 10 μM": "%"}, "values": [
      {"smiles": "CCn1nc2cnc(N3CCN(CC(=O)N4CC(O)C4)CC3)cc2c1N(C)c1nc(-c2ccc(F)cc2)c(C#N)s1", "note": "[Compound S-0044, 2-((2-ethyl-5-(4-(2-(3-hydroxyazetidin-1-yl)-2-oxoethyl)piperazin-1-yl)-2H-pyrazolo[3,4-c]pyridin-3-yl)(methyl)amino)-4-(4-fluorophenyl) thiazole-5-carbonitrile]", "CYP3A4 TDI % @ 10 μM": 15.3},
      {"smiles": "CCn1nc2ncc(N3CCN(CC(=O)N4CC(O)C4)CC3)cc2c1N(C)c1nc(-c2ccc(F)cc2)c(C#N)s1", "note": "[Compound S-0043, 2-((2-ethyl-5-(4-(2-(3-hydroxyazetidin-1-yl)-2-oxoethyl)piperazin-1-yl)-2H-pyrazolo[3,4-b]pyridin-3-yl)(methyl)amino)-4-(4-fluorophenyl)thiazole-5-carbonitrile]", "CYP3A4 TDI % @ 10 μM": 12.38},
      {"smiles": "CCc1nn2ccc(N3CCN(CC(=O)N4CC(O)C4)CC3)nc2c1N(C)c1nc(-c2ccc(F)cc2)c(C#N)s1", "note": "[Compound S-0041, 2-((2-ethyl-5-(4-(2-(3-hydroxyazetidin-1-yl)-2-oxoethyl)piperazin-1-yl)pyrazolo[1,5-a]pyrimidin-3-yl)(methyl)amino)-4-(4-fluorophenyl)thiazole-5-carbonitrile]", "CYP3A4 TDI % @ 10 μM": "−4.00"}
    ]},
    {"molecular_target": "CYP3A4 (Homo sapiens (Human), UniProt P08684)", "assay": "Time-dependent inhibition of CYP3A4 (TDI assay, human liver microsomes)", "assay_type": "in vitro ADME", "details": "conclusion drawn from Table 3, 10 μM", "method": "as §1, §2, §3, §4, §5, §6, §7, §8, §9, §10, §11", "values": [
      {"smiles": "CCn1nc2cnc(N3CCN(CC(=O)N4CC(O)C4)CC3)cc2c1N(C)c1nc(-c2ccc(F)cc2)c(C#N)s1", "note": "[Compound S-0044, 2-((2-ethyl-5-(4-(2-(3-hydroxyazetidin-1-yl)-2-oxoethyl)piperazin-1-yl)-2H-pyrazolo[3,4-c]pyridin-3-yl)(methyl)amino)-4-(4-fluorophenyl) thiazole-5-carbonitrile]", "time-dependent inhibition on CYP3A4 (conclusion)": "no time-dependent inhibition on CYP3A4"},
      {"smiles": "CCn1nc2ncc(N3CCN(CC(=O)N4CC(O)C4)CC3)cc2c1N(C)c1nc(-c2ccc(F)cc2)c(C#N)s1", "note": "[Compound S-0043, 2-((2-ethyl-5-(4-(2-(3-hydroxyazetidin-1-yl)-2-oxoethyl)piperazin-1-yl)-2H-pyrazolo[3,4-b]pyridin-3-yl)(methyl)amino)-4-(4-fluorophenyl)thiazole-5-carbonitrile]", "time-dependent inhibition on CYP3A4 (conclusion)": "no time-dependent inhibition on CYP3A4"},
      {"smiles": "CCc1nn2ccc(N3CCN(CC(=O)N4CC(O)C4)CC3)nc2c1N(C)c1nc(-c2ccc(F)cc2)c(C#N)s1", "note": "[Compound S-0041, 2-((2-ethyl-5-(4-(2-(3-hydroxyazetidin-1-yl)-2-oxoethyl)piperazin-1-yl)pyrazolo[1,5-a]pyrimidin-3-yl)(methyl)amino)-4-(4-fluorophenyl)thiazole-5-carbonitrile]", "time-dependent inhibition on CYP3A4 (conclusion)": "no time-dependent inhibition on CYP3A4"}
    ]},
    {"molecular_target": "Autotaxin (ATX) (Homo sapiens (Human), UniProt Q13822)", "assay": "ATX bioactivity assay (Amplex Red / choline oxidase / HRP fluorescence, LPC 16:0 substrate)", "assay_type": "biochemical", "details": "30 min room temperature", "method": "Effect Example 1 Bioactivity Assay\nPreparation and Treatment\nStock Solution Preparation\nA 10 mM DMSO stock solution was formulated for each compound. A 30 mM DMSO stock solution was formulated for positive control HA130.\nThe DMSO stock solutions were stored at room temperature in a desiccator for a short period of time or at −20° C. for a long period of time.\nAll compounds were serially 3-fold diluted in DMSO from 10 μM to the 10th concentration.\nA 1000× positive control (10 mM, HA130) and a 1000× negative control (100% DMSO) were prepared.\nThe plates were shaken for 5 min.\nPreparation of 1× Reaction Buffer:\n5× reaction buffer and cold water were mixed well in a volume ratio of 1:4.\nPreparation of 20 U/mL Choline Oxidase Stock Solution:\n1 tube of choline oxide in a kit was dissolved in 1× reaction buffer. The aliquots were frozen at −20° C.\nPreparation of 200 U/mL Horseradish Peroxidase (HRP) Stock Solution:\n1 tube of HRP in a kit was dissolved in 1 mL of 1× reaction buffer. The aliquots were frozen at −20° C.\nPreparation of 20 mM Amplex® Red Reagent (for Detection) Stock Solution\nAmplex Red reagent and DMSO were equilibrated at room temperature. 1 tube of Amplex Red reagent in a kit was dissolved in 200 μL of DMSO.\na) 2×ATX ([…]), 2×HRP ([…]), 2× choline oxidase (0.2 U/mL) were added to 1× reaction buffer.\nb) 20 μL of the reaction mixture was added to the plate (PE, 6007270) (refer to step a).\nc) 40 nL of diluent was added to the plate using Echo (refer to “Preparation”).\nd) 2×LPC (16:0) (60 mM) and 2× Amplex® Red ([…]) were prepared using 1× reaction buffer.\ne) 20 μL of the mixture was added to the plate (refer to step d).\nf) The plate was shaken for 30 s and allowed to stand at room temperature for 30 min.\ng) The plate was examined using Envision, and the procedure was as follows: Excitation at 530 nm; and Emission at 590 nm.\nFormula for Calculating % Inhibition (Percent Inhibition Rate) as Follows:\nFLU: Fluorescence (fluorescence reading)\nFLUpositive: Average fluorescence value in positive control wells (10 μM HA130) in the plate.\nFLUvehicle: Average fluorescence value in negative control wells (0.1% DMSO) in the plate.\nCalculation of IC50 and Dose-Response Curve:\nIC50 of the compounds was calculated via a non-linear regression line (dose-variable slope) fitted using % inhibition and log of compound concentration. The software used was Graphpad 5.0. Y=Bottom+(Top−Bottom)/(1+10^((Log IC50−X)×Hill Slope))\nX: log of inhibitor concentration", "values": [
      {"smiles": "CCc1nn2c(C)cc(N3CCN(CC(=O)N4CC(O)C4)C[C@H]3C)nc2c1N(C)c1nc(-c2ccc(F)cc2)c(C#N)s1", "note": "[Compound S-0070, (R)-2-((2-ethyl-5-(4-(2-(3-hydroxyazetidin-1-yl)-2-oxoethyl)-2-methylpiperazine-1-yl)-7-methylpyrazolo[1,5-a]pyrimidin-3-yl)(methyl)amino)-4-(4-fluorophenyl)thiazole-5-carbonitrile]", "pIC50": 7.44},
      {"smiles": "CCc1nn2ccc(N3CCN(CC(=O)N4CC(O)C4)CC3)cc2c1N(C)c1nc(-c2ccc(F)cc2)c(C#N)s1", "note": "[Compound S-0040, 2-((2-ethyl-5-(4-(2-(3-hydroxyazetidin-1-yl)-2-oxoethyl)piperazin-1-yl)pyrazolo[1,5-a]pyridin-3-yl)(methyl)amino)-4-(4-fluorophenyl)thiazole-5-carbonitrile]", "pIC50": 6.12},
      {"smiles": "CCc1nn2c(C)cc(N3CCN(CC(=O)N4CC(O)C4)[C@H](C)C3)nc2c1N(C)c1nc(-c2ccc(F)cc2)c(C#N)s1", "note": "[Compound S-0074, (R)-2-((2-ethyl-5-(4-(2-(3-hydroxyazetidin-1-yl)-2-oxoethyl)-3-methylpiperazin-1-yl)-7-methylpyrazolo[1,5-a]pyrimidin-3-yl)(methyl)amino)-4-(4-fluorophenyl)thiazole-5-carbonitrile]", "pIC50": 6.68},
      {"smiles": "CCc1nn2c(C)cc(N3CCN(CC(=O)N4CC(O)C4)CC3)nc2c1N(C)c1nc(-c2ccc(F)c(F)c2)c(C#N)s1", "note": "[Compound S-0068, 4-(3,4-difluorophenyl)-2-((2-ethyl-5-(4-(2-(3-hydroxyazetidin-1-yl)-2-oxoethyl)piperazin-1-yl)-7-methylpyrazolo[1,5-a]pyrimidin-3-yl)(methyl)amino) thiazole-5-carbonitrile]", "pIC50": 6.97},
      {"smiles": "CCc1nn2c(C)cc(N3CCN(CC(=O)N4CC(O)C4)CC3)nc2c1N(CC)c1nc(-c2ccc(F)cc2)c(C#N)s1", "note": "[Compound S-0069, 2-(ethyl(2-ethyl-5-(4-(2-(3-hydroxyazetidin-1-yl)-2-oxoethyl)piperazine-1-yl)-7-methylpyrazolo[1,5-a]pyrimidin-3-yl)amino)-4-(4-fluorophenyl) thiazole-5-carbonitrile]", "pIC50": 7.37},
      {"smiles": "CCn1nc2c(C)cc(N3CCN(CC(=O)N4CC(O)C4)CC3)nc2c1N(CC(F)(F)F)c1nc(-c2ccc(F)cc2)c(C#N)s1", "note": "[Compound S-0140, 2-((2-ethyl-5-(4-(2-(3-hydroxyazetidin-1-yl)-2-oxoethyl)piperazin-1-yl)-7-methyl-2H-pyrazolo[4,3-b]pyridin-3-yl)(2,2,2-trifluoroethyl)amino)-4-(4-fluorophenyl)thiazole-5-carbonitrile]", "pIC50": 6.49},
      {"smiles": "CCc1nn2ccc(N3CCN(CC(=O)N4CC(O)C4)CC3)nc2c1N(C)c1nc(-c2ccc(F)c(F)c2)c(C#N)s1", "note": "[Compound S-0121, 4-(3,4-difluorophenyl)-2-((2-ethyl-5-(4-(2-(3-hydroxyazetidin-1-yl)-2-oxoethyl)piperazin-1-yl)pyrazolo[1,5-a]pyrimidin-3-yl)(methyl)amino)thiazole-5-carbonitrile]", "pIC50": 7.21},
      {"smiles": "CN(c1nc(-c2ccc(F)cc2)c(C#N)s1)c1c2cc(N3CCN(CC(=O)N4CC(O)C4)CC3)cc(F)c2nn1C1CC1", "note": "[Compound S-0126, 2-((2-cyclopropyl-7-fluoro-5-(4-(2-(3-hydroxyazetidin-1-yl)-2-oxoethyl)piperazin-1-yl)-2H-indazol-3-yl)(methyl)amino)-4-(4-fluorophenyl)thiazole-5-carbonitrile]", "pIC50": 7.00},
      {"smiles": "CCc1nn2c(C)cc(N3CCN(CC(=O)N4CC(O)C4)[C@@H](C)C3)nc2c1N(C)c1nc(-c2ccc(F)cc2)c(C#N)s1", "note": "[Compound S-0075, (S)-2-((2-ethyl-5-(4-(2-(3-hydroxyazetidin-1-yl)-2-oxoethyl)-3-methylpiperazin-1-yl)-7-methylpyrazolo[1,5-a]pyrimidin-3-yl)(methyl)amino)-4-(4-fluorophenyl)thiazole-5-carbonitrile]", "pIC50": 7.06},
      {"smiles": "O=C1S/C(=C\\c2ccc(OCc3cccc(B(O)O)c3)cc2)C(=O)N1Cc1ccc(F)cc1", "note": "[HA130, reference compound]", "pIC50": 7.62},
      {"smiles": "CCc1nn2c(C)cc(N3CCN(CC(=O)N4CC(O)C4)C[C@@H]3C)nc2c1N(C)c1nc(-c2ccc(F)cc2)c(C#N)s1", "note": "[Compound S-0071, (S)-2-((2-ethyl-5-(4-(2-(3-hydroxyazetidin-1-yl)-2-oxoethyl)-2-methylpiperazin-1-yl)-7-methylpyrazolo[1,5-a]pyrimidin-3-yl)(methyl)amino)-4-(4-fluorophenyl)thiazole-5-carbonitrile]", "pIC50": 7.34},
      {"smiles": "CCc1nn2ccc(N3CCN(CC(=O)N4CC(O)C4)C(=O)C3)nc2c1N(C)c1nc(-c2ccc(F)cc2)c(C#N)s1", "note": "[Compound S-0104CP, 2-((2-ethyl-5-(4-(2-(3-hydroxyazetidin-1-yl)-2-oxoethyl)-3-oxopiperazin-1-yl)pyrazolo[1,5-a]pyrimidin-3-yl)(methyl)amino)-4-(4-fluorophenyl)thiazole-5-carbonitrile]", "pIC50": 6.59}
    ]}
  ]
}
